Measurements: ChEMBL document CHEMBL1143346, “Solid-phase parallel synthesis and SAR of 4-amidofuran-3-one inhibitors of cathepsin S: effect of sulfonamides P3 substituents on potency and selectivity” (Bioorg Med Chem, 2009)

What was measured:
[1] = target: T1, Cathepsin K (Homo sapiens, UniProt P43235); assay: Inhibition of human recombinant cathepsin K expressed in baculovirus by fluorescence assay
T1 sequence (P43235 whole entry): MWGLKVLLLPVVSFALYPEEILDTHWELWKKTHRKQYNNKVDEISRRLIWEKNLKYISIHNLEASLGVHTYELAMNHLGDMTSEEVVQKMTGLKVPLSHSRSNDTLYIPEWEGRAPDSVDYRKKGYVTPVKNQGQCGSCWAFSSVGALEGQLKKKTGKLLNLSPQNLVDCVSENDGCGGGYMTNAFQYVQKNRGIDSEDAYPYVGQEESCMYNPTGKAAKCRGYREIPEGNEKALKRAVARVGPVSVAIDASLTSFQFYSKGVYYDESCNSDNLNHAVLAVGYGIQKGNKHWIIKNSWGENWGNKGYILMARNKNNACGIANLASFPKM

[2] = target: Cathepsin S (Homo sapiens, UniProt P25774); assay: Inhibition of human recombinant cathepsin S expressed in baculovirus by fluorescence assay
Cathepsin S, sequence (P25774 whole entry): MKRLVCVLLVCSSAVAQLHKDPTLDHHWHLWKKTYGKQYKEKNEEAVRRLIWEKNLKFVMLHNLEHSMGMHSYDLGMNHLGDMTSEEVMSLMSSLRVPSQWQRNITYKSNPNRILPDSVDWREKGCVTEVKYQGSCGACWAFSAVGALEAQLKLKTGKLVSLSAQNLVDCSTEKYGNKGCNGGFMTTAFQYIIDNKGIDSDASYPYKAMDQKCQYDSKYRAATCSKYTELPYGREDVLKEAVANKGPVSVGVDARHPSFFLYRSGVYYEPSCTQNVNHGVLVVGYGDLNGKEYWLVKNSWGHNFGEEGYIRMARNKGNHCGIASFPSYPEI

[3] = target: Procathepsin L (Homo sapiens, UniProt P07711); assay: Inhibition of human cathepsin L by fluorescence assay
Procathepsin L, sequence (P07711 whole entry): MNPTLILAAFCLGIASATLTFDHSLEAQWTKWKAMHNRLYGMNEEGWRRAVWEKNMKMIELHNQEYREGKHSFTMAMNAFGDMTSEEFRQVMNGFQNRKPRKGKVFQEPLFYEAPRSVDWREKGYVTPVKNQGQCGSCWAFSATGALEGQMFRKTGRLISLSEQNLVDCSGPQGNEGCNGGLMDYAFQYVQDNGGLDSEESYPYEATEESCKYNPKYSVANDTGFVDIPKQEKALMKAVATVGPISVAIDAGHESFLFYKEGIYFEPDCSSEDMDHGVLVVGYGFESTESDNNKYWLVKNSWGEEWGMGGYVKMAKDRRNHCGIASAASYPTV

Row | Ki [1] | Ki [2] | Ki [3] | SMILES
1 | 730 nM | 0.6 nM | 6800 nM | CC[C@@H]1OCC(=O)[C@H]1NC(=O)[C@H](CC1(C)CCCC1)NC(=O)c1ccc(NS(=O)(=O)c2cccc(C#N)c2)cc1
2 | 1800 nM | 0.7 nM | 16000 nM | CC[C@@H]1OCC(=O)[C@H]1NC(=O)[C@H](CC1(C)CCCC1)NC(=O)c1ccc(NS(=O)(=O)c2sc(C)nc2C)cc1
3 | 98 nM | 110 nM | 11000 nM | CC[C@@H]1OCC(=O)[C@H]1NC(=O)[C@H](CC1(C)CCCC1)NC(=O)c1ccc(N(C)S(C)(=O)=O)cc1
4 | 1500 nM | 12 nM | 2500 nM | CC[C@@H]1OCC(=O)[C@H]1NC(=O)[C@H](CC1(C)CCCC1)NC(=O)c1cccc(NS(C)(=O)=O)c1
5 | 1200 nM | 63 nM | 14000 nM | CC[C@@H]1OCC(=O)[C@H]1NC(=O)[C@H](CC1(C)CCCC1)NC(=O)c1ccc(NS(C)(=O)=O)nc1
6 | 260 nM | 0.9 nM | 8700 nM | CC[C@@H]1OCC(=O)[C@H]1NC(=O)[C@H](CC1(C)CCCC1)NC(=O)c1ccc(NS(=O)(=O)c2cnccc2C)cc1
7 | 500 nM | 3.3 nM | 11000 nM | CC[C@@H]1OCC(=O)[C@H]1NC(=O)[C@H](CC1(C)CCCC1)NC(=O)c1ccc(NS(=O)(=O)c2ccc(OC)cc2)cc1
8 | 1900 nM | 30 nM | 23000 nM | CC[C@@H]1OCC(=O)[C@H]1NC(=O)[C@H](CC1(C)CCCC1)NC(=O)c1ccc(NS(C)(=O)=O)cc1C
9 | 1100 nM | 2.7 nM | 13000 nM | CC[C@@H]1OCC(=O)[C@H]1NC(=O)[C@H](CC1(C)CCCC1)NC(=O)c1ccc(NS(=O)(=O)c2ccncc2)cc1
10 | 950 nM | 1.1 nM | 7900 nM | CC[C@@H]1OCC(=O)[C@H]1NC(=O)[C@H](CC1(C)CCCC1)NC(=O)c1ccc(NS(=O)(=O)c2ccc(C#N)cc2)cc1
11 | 23000 nM | 190 nM | 15000 nM | CC[C@@H]1OCC(=O)[C@H]1NC(=O)[C@H](CC1(C)CCCC1)NC(=O)c1cccc(S(=O)(=O)NC)c1
12 | 550 nM | 3.9 nM | 8400 nM | CC[C@@H]1OCC(=O)[C@H]1NC(=O)[C@H](CC1(C)CCCC1)NC(=O)c1ccc(NS(=O)(=O)c2ccccc2C)cc1
13 | 3000 nM | 13 nM | 27000 nM | CC[C@@H]1OCC(=O)[C@H]1NC(=O)[C@H](CC1(C)CCCC1)NC(=O)c1ccc(NS(=O)(=O)c2nc(C)cs2)cc1
14 | 980 nM | 3.8 nM | 11000 nM | CC[C@@H]1OCC(=O)[C@H]1NC(=O)[C@H](CC1(C)CCCC1)NC(=O)c1ccc(NS(=O)(=O)c2ccccc2F)cc1
15 | 840 nM | 5.6 nM | 970 nM | CC[C@@H]1OCC(=O)[C@H]1NC(=O)[C@H](CC1(C)CCCC1)NC(=O)c1ccc(NS(C)(=O)=O)c(Cl)c1
16 | 560 nM | 26 nM | 7200 nM | CC[C@@H]1OCC(=O)[C@H]1NC(=O)[C@H](CC1(C)CCCC1)NC(=O)c1ccc(NS(C)(=O)=O)c(OC)c1
17 | 240 nM | 4.9 nM | 2000 nM | CC[C@@H]1OCC(=O)[C@H]1NC(=O)[C@H](CC1(C)CCCC1)NC(=O)c1ccc(NS(C)(=O)=O)c(C)c1
18 | 440 nM | 2.4 nM | 12000 nM | CC[C@@H]1OCC(=O)[C@H]1NC(=O)[C@H](CC1(C)CCCC1)NC(=O)c1ccc(NS(=O)(=O)C2CC2)cc1
19 | 520 nM | 3.4 nM | 7800 nM | CC[C@@H]1OCC(=O)[C@H]1NC(=O)[C@H](CC1(C)CCCC1)NC(=O)c1ccc(NS(=O)(=O)c2cccc(F)c2)cc1
20 | 750 nM | 57 nM | 9500 nM | CC[C@@H]1OCC(=O)[C@H]1NC(=O)[C@H](CC1(C)CCCC1)NC(=O)c1ccc(NS(C)(=O)=O)c(C(C)=O)c1
21 | 450 nM | 2.3 nM | 13000 nM | CC[C@@H]1OCC(=O)[C@H]1NC(=O)[C@H](CC1(C)CCCC1)NC(=O)c1ccc(NS(=O)(=O)c2ccccn2)cc1
22 | 318 nM | 31 nM | 10000 nM | CC[C@@H]1OCC(=O)[C@H]1NC(=O)[C@H](CC(C)(C)C)NC(=O)c1ccsc1
23 | 5000 nM | 330 nM | 29000 nM | CC[C@@H]1OCC(=O)[C@H]1NC(=O)[C@H](CC1(C)CCCC1)NC(=O)c1ccc(NS(C)(=O)=O)cc1OC
24 | 500 nM | 2.9 nM | 15000 nM | CC[C@@H]1OCC(=O)[C@H]1NC(=O)[C@H](CC1(C)CCCC1)NC(=O)c1ccc(NS(=O)(=O)C(C)C)cc1

Row | Ki [1] | Ki [2] | Ki [3] | SMILES
25 | 820 nM | 0.8 nM | 8500 nM | CC[C@@H]1OCC(=O)[C@H]1NC(=O)[C@H](CC1(C)CCCC1)NC(=O)c1ccc(NS(=O)(=O)c2ccccc2C#N)cc1
26 | 300 nM | 5.3 nM | 16000 nM | CC[C@@H]1OCC(=O)[C@H]1NC(=O)[C@H](CC1(C)CCCC1)NC(=O)c1ccc(NS(=O)(=O)N(C)C)cc1
27 | 2300 nM | 8.6 nM | 17000 nM | CC[C@@H]1OCC(=O)[C@H]1NC(=O)[C@H](CC1(C)CCCC1)NC(=O)c1ccc(NS(=O)(=O)c2ncc(C)s2)cc1
28 | 270 nM | 1 nM | 14000 nM | CC[C@@H]1OCC(=O)[C@H]1NC(=O)[C@H](CC1(C)CCCC1)NC(=O)c1ccc(NS(=O)(=O)c2cccc(OC)c2)cc1
29 | 2200 nM | 56 nM | 31000 nM | CC[C@@H]1OCC(=O)[C@H]1NC(=O)[C@H](CC1(C)CCCC1)NC(=O)c1ccc(NS(=O)(=O)c2ccccc2)nc1
30 | 1500 nM | 3.4 nM | 21000 nM | CCCCS(=O)(=O)Nc1ccc(C(=O)N[C@@H](CC2(C)CCCC2)C(=O)N[C@@H]2C(=O)CO[C@H]2CC)cc1
31 | 1200 nM | 8.3 nM | 15000 nM | CC[C@@H]1OCC(=O)[C@H]1NC(=O)[C@H](CC1(C)CCCC1)NC(=O)c1ccc(NS(=O)(=O)C(F)(F)F)cc1
32 | 570 nM | 2.1 nM | 14000 nM | CC[C@@H]1OCC(=O)[C@H]1NC(=O)[C@H](CC1(C)CCCC1)NC(=O)c1ccc(NS(=O)(=O)c2cccnc2)cc1
33 | 1700 nM | 5.7 nM | 9100 nM | CC[C@@H]1OCC(=O)[C@H]1NC(=O)[C@H](CC1(C)CCCC1)NC(=O)c1ccc(NS(=O)(=O)c2nc(C(C)C)cs2)cc1
34 | 950 nM | 1.3 nM | 9100 nM | CC[C@@H]1OCC(=O)[C@H]1NC(=O)[C@H](CC1(C)CCCC1)NC(=O)c1ccc(NS(=O)(=O)c2ccc(N)cc2)cc1
35 | 420 nM | 140 nM | 27000 nM | CC[C@@H]1OCC(=O)[C@H]1NC(=O)[C@H](CC1(C)CCCC1)NC(=O)c1ccc(S(=O)(=O)NC)cc1
36 | 1700 nM | 31 nM | 15000 nM | CC[C@@H]1OCC(=O)[C@H]1NC(=O)[C@H](CC1(C)CCCC1)NC(=O)c1ccc(NS(=O)(=O)Cc2ccccc2)cc1
37 | 700 nM | 16 nM | 7800 nM | CC[C@@H]1OCC(=O)[C@H]1NC(=O)[C@H](CC1(C)CCCC1)NC(=O)c1ccc(NS(C)(=O)=O)c(F)c1
38 | 290 nM | 2.6 nM | 12000 nM | CC[C@@H]1OCC(=O)[C@H]1NC(=O)[C@H](CC1(C)CCCC1)NC(=O)c1ccc(NS(C)(=O)=O)cc1
39 | 370 nM | 2 nM | 5900 nM | CC[C@@H]1OCC(=O)[C@H]1NC(=O)[C@H](CC1(C)CCCC1)NC(=O)c1ccc(NS(=O)(=O)c2ccc(F)cc2)cc1
40 | 1000 nM | 2.3 nM | 13000 nM | CC[C@@H]1OCC(=O)[C@H]1NC(=O)[C@H](CC1(C)CCCC1)NC(=O)c1ccc(NS(=O)(=O)c2cccs2)cc1
41 | 430 nM | 0.8 nM | 11000 nM | CC[C@@H]1OCC(=O)[C@H]1NC(=O)[C@H](CC1(C)CCCC1)NC(=O)c1ccc(NS(=O)(=O)c2ccccc2)cc1
42 | 470 nM | 1.9 nM | 17000 nM | CC[C@@H]1OCC(=O)[C@H]1NC(=O)[C@H](CC1(C)CCCC1)NC(=O)c1ccc(NS(=O)(=O)CC)cc1
43 | 640 nM | 4.5 nM | 24000 nM | CC[C@@H]1OCC(=O)[C@H]1NC(=O)[C@H](CC1(C)CCCC1)NC(=O)c1ccc(NS(=O)(=O)c2nccn2C)cc1
44 | 800 nM | 5.9 nM | 23000 nM | CC[C@@H]1OCC(=O)[C@H]1NC(=O)[C@H](CC1(C)CCCC1)NC(=O)c1ccc(NS(=O)(=O)c2cccnc2Cl)cc1
45 | 730 nM | 4 nM | 2300 nM | CC[C@@H]1OCC(=O)[C@H]1NC(=O)[C@H](CC1(C)CCCC1)NC(=O)c1ccc(NS(=O)(=O)c2ccccc2)c(C)c1
46 | 950 nM | 180 nM | 64000 nM | CC[C@@H]1OCC(=O)[C@H]1NC(=O)[C@H](CC1(C)CCCC1)NC(=O)c1ccc(NS(=O)(=O)C2CCCCC2)cc1
47 | 1600 nM | 12 nM | 1100 nM | CC[C@@H]1OCC(=O)[C@H]1NC(=O)[C@H](CC1(C)CCCC1)NC(=O)c1ccc(NS(=O)(=O)c2ccccc2)c(Cl)c1
